Assay results reported in ChEMBL document CHEMBL1649462, “Concentrations of voriconazole in healthy and inflamed lung in rats” (Antimicrob Agents Chemother, 2009).

How the values were obtained:
Lung [1] = experiment: Free AUC (0 to 6 hrs) in lung of healthy Wistar rat at 6 mg/kg, iv administered as single dose after 6 hrs by microdialysis technique; format: ADME, organism-based; parameters: dose 6 mg/kg, route intravenous; details: in vivo
[2] = AUC (0 to 6 hrs) in plasma of healthy Wistar rat at 6 mg/kg, iv administered as single dose after 6 hrs by microdialysis technique; format: ADME, organism-based; parameters: time < 6 hr, dose 6 mg/kg, route intravenous
[3] = Free AUC (0 to 6 hrs) in skeletal muscle of healthy Wistar rat at 6 mg/kg, iv administered as single dose after 6 hrs by microdialysis technique; format: ADME, organism-based, Muscle tissue; parameters: dose 6 mg/kg, route intravenous; details: in vivo
[4] = Cmax in plasma of healthy Wistar rat at 6 mg/kg, iv administered as single dose after 6 hrs by microdialysis technique; format: ADME, organism-based; parameters: dose 6 mg/kg, route intravenous
Lung [5] = experiment: fCmax in lung of healthy Wistar rat at 6 mg/kg, iv administered as single dose after 6 hrs by microdialysis technique; format: ADME, organism-based; parameters: dose 6 mg/kg, route intravenous; details: in vivo
[6] = fCmax in skeletal muscle of healthy Wistar rat at 6 mg/kg, iv administered as single dose after 6 hrs by microdialysis technique; format: ADME, organism-based, Muscle tissue; parameters: dose 6 mg/kg, route intravenous; details: in vivo
[7] = Tmax in plasma of healthy Wistar rat at 6 mg/kg, iv administered as single dose after 6 hrs by microdialysis technique; format: ADME, organism-based; parameters: dose 6 mg/kg, route intravenous
[8] = fTmax in lung of healthy Wistar rat at 6 mg/kg, iv administered as single dose after 6 hrs by microdialysis technique; format: ADME, organism-based; parameters: dose 6 mg/kg, route intravenous; details: read-out: fTmax (converted)
[9] = fTmax in skeletal muscle of healthy Wistar rat at 6 mg/kg, iv administered as single dose after 6 hrs by microdialysis technique; format: ADME, organism-based, Muscle tissue; parameters: dose 6 mg/kg, route intravenous; details: read-out: fTmax (converted)
[10] = Half life in plasma of healthy Wistar rat at 6 mg/kg, iv administered as single dose after 6 hrs by microdialysis technique; format: ADME, organism-based; parameters: dose 6 mg/kg, route intravenous
[11] = AUC (0 to 6 hrs) in plasma of Wistar rat with LPS-induced severe inflammatory response at 6 mg/kg, iv administered as single dose after 6 hrs by microdialysis technique; format: ADME, organism-based; parameters: time < 6 hr, dose 6 mg/kg, route intravenous
[12] = AUC (0 to 6 hrs) in lung of Wistar rat with LPS-induced severe inflammatory response at 6 mg/kg, iv administered as single dose after 6 hrs by microdialysis technique; format: ADME, organism-based; parameters: time < 6 hr, dose 6 mg/kg, route intravenous
[13] = AUC (0 to 6 hrs) in skeletal muscle of Wistar rat with LPS-induced severe inflammatory response at 6 mg/kg, iv administered as single dose after 6 hrs by microdialysis technique; format: ADME, organism-based; parameters: time < 6 hr, dose 6 mg/kg, route intravenous
[14] = Cmax in plasma of Wistar rat with LPS-induced severe inflammatory response at 6 mg/kg, iv administered as single dose after 6 hrs by microdialysis technique; format: ADME, organism-based; parameters: dose 6 mg/kg, route intravenous
Lung [15] = experiment: fCmax in lung of Wistar rat with LPS-induced severe inflammatory response at 6 mg/kg, iv administered as single dose after 6 hrs by microdialysis technique; format: ADME, organism-based; parameters: dose 6 mg/kg, route intravenous; details: in vivo
[16] = fCmax in skeletal muscle of Wistar rat with LPS-induced severe inflammatory response at 6 mg/kg, iv administered as single dose after 6 hrs by microdialysis technique; format: ADME, organism-based, Muscle tissue; parameters: dose 6 mg/kg, route intravenous; details: in vivo
[17] = Tmax in plasma of Wistar rat with LPS-induced severe inflammatory response at 6 mg/kg, iv administered as single dose after 6 hrs by microdialysis technique; format: ADME, organism-based; parameters: dose 6 mg/kg, route intravenous
[18] = fTmax in lung of Wistar rat with LPS-induced severe inflammatory response at 6 mg/kg, iv administered as single dose after 6 hrs by microdialysis technique; format: ADME, organism-based; parameters: dose 6 mg/kg, route intravenous; details: read-out: fTmax (converted)
[19] = fTmax in skeletal muscle of Wistar rat with LPS-induced severe inflammatory response at 6 mg/kg, iv administered as single dose after 6 hrs by microdialysis technique; format: ADME, organism-based, Muscle tissue; parameters: dose 6 mg/kg, route intravenous; details: read-out: fTmax (converted)
[20] = Half life in plasma of Wistar rat with LPS-induced severe inflammatory response at 6 mg/kg, iv administered as single dose after 6 hrs by microdialysis technique; format: ADME, organism-based; parameters: dose 6 mg/kg, route intravenous
[21] = Protein binding in female Sprague-Dawley rat plasma at 30 mg/kg, po for 6 days; format: ADME, organism-based; parameters: dose 30 mg/kg, route oral; details: read-out: PPB (converted)
[22] = Protein binding in male Sprague-Dawley rat plasma at 30 mg/kg, po for 6 days; format: ADME, organism-based; parameters: dose 30 mg/kg, route oral; details: read-out: PPB (converted)

C[C@@H](c1ncncc1F)[C@](O)(Cn1cncn1)c1ccc(F)cc1F [VORICONAZOLE]
fAUC (Lung [1]): 608 mg·min/L | AUC(0-t) at 6 h [2]: 19600 ng·h/mL | fAUC [3]: 530 mg·min/L | Cmax [4]: 5400 ng/mL | fCmax (Lung [5]): 2.6 mg/L | fCmax [6]: 2.2 mg/L | Tmax [7]: 0.817 h | Tmax [8]: 2.28 h | Tmax [9]: 3.25 h | half-life [10]: 10.2 h | AUC(0-t) at 6 h [11]: 22700 ng·h/mL | AUC(0-t) at 6 h [12]: 8170 ng·h/mL | AUC(0-t) at 6 h [13]: 8450 ng·h/mL | Cmax [14]: 6300 ng/mL | fCmax (Lung [15]): 2.3 mg/L | fCmax [16]: 2.2 mg/L | Tmax [17]: 0.25 h | Tmax [18]: 1.87 h | Tmax [19]: 2.17 h | half-life [20]: 11.3 h | fraction unbound at 144 h [21]: 0.34 | fraction unbound at 144 h [22]: 0.34
